Test results taken from paper PMC9032718, “Eltrombopag as an Allosteric Inhibitor of the METTL3-14 Complex Affecting the m^6A Methylation of RNA in Acute Myeloid Leukemia Cells” (Pharmaceuticals, 2022).

Tests used:
METTL3-14 complex = molecular target: T1, METTL3-14 complex (Homo sapiens, UniProt Q86U44); experiment: Mass spectrometry based METTL3-14 enzyme based assay (m^6A level of single strand RNA substrate); format: biochemical; conditions: read-out: IC50, METTL3-14 inhibition, mass spectrometric enzyme based assay
T1 construct: genes encoding the full-length and MTase domain of human METTL3; METTL3-14 FL: full length of METTL3-14; 10x His (thrombin-cleavable) (cleaved yes); made in house; host or cells: Trichoplusia ni (Hi5) cells co-infected with two baculoviruses (virus made in Sf9)
Method: The 30 nM of METTL3-14 was incubated with 300 nM of SAM, 300 nM of RNA substrates, and serially diluted compounds at 23 °C for 1 h as described above. The enzymatic reaction was stopped by heating at 80 °C for 10 min and centrifuged at 15,000× g for 10 min. Then, the reacted RNA in the supernatant was digested to nucleosides by using 2 units of nuclease P1 (NEB, Ipswich, MA, USA) and dephosphorylated by using 1 unit of alkaline phosphatase (NEB) at 37 °C for 2 h.
The produced nucleosides were detected by reversed-phase high-performance liquid chromatography on an ACQUITY BEH C18 column ([…], 2.1 mm × 50 mm; Waters) coupled with mass spectrometry detection using an EVOQ Elite ER LC-TQ (Bruker, Billerica, MA, USA). The adenosine and m^6A were quantified using an MRM transition as follows: m/z = 267.9 -> 136.1 and m/z = 282.1 -> 150.1, respectively. (Retention time 5 min). The m^6A/A nucleoside ratio of the eltrombopag-treated sample was normalized to the corresponding value of the DMSO treated negative control. The IC50 values were calculated by a nonlinear regression analysis using OriginPro 9.1 software (OriginLab).

[1] = system: m^6A methylation of MOLM-13 transcriptome; experiment: m^6A-seq and sequencing data analysis (differential methylation peaks, motifs, annotation, GO enrichment); format: cell-based, human
Method: mRNA was purified using a GenElute™ mRNA Miniprep Kit (SIGMA, MRN10-1KT, St. Louis, MO, USA) according to the manufacturer’s protocol. Briefly, the total RNA was mixed with 2× Binding Solution and oligo(dT) beads, vortexed, and left for 10 min at room temperature. The beads:mRNA complex was passed through a GenElute spin filter/collection tube and washed twice with Wash Solution. The mRNA was eluted in an Elution Solution incubated at 70 °C.
m^6A-seq was performed using the EpiMark® N^6-Methyladenosine Enrichment Kit (NEB, E1610S). Briefly, 25 μL of Dynabeads™ Protein G (Invitrogen, 10004D) and 1 μL of N^6-Methyladenosine Antibody were incubated in a 4 °C rotator for 2 h. The purified mRNA was fragmented at 95 °C for 10 min in a fragmentation buffer (100 mM Tris (pH 8.0), 8 mM MgCl2) with spike-in control RNA (m^6A and unmodified, 0.1 fmol of each RNA). The fragmented RNA was concentrated with RNA Clean & Concentrator™-5 (ZYMO […], R1014, Irvine, CA, USA) and then 5% was saved as the input. The remaining 95% of the fragmented RNA was added to the beads/antibody complex. RNA was eluted in Buffer RLT (QIAGEN, 79216, Hilden, Germany), followed by ethanol precipitation and was used for sequencing library construction. All sequencing experiments were performed in triplicate via Novaseq. Adapter trimming and QC were performed using Trim Galore. Reads were mapped to hg38 by HISAT2 [56], and exomePeak and HOMER [58] were used to analyze the differential methylation peaks, motifs, and gene annotations.

[2] = system: AML cell line transplanted mouse; parameters: method as in PMID 22627766; conditions: mouse model transplanted with an AML cell line; cited from earlier work
G9a = molecular target: T2, G9a (Homo sapiens, UniProt Q96KQ7); experiment: Methyltransferase selectivity panel (MT HotSpot radioisotope assay), G9a; format: biochemical; conditions: 10 μM eltrombopag
T2 construct: purchased Reaction Biology (Malvern, PA, USA), contract assay
T2 sequence (Q96KQ7 1-1210): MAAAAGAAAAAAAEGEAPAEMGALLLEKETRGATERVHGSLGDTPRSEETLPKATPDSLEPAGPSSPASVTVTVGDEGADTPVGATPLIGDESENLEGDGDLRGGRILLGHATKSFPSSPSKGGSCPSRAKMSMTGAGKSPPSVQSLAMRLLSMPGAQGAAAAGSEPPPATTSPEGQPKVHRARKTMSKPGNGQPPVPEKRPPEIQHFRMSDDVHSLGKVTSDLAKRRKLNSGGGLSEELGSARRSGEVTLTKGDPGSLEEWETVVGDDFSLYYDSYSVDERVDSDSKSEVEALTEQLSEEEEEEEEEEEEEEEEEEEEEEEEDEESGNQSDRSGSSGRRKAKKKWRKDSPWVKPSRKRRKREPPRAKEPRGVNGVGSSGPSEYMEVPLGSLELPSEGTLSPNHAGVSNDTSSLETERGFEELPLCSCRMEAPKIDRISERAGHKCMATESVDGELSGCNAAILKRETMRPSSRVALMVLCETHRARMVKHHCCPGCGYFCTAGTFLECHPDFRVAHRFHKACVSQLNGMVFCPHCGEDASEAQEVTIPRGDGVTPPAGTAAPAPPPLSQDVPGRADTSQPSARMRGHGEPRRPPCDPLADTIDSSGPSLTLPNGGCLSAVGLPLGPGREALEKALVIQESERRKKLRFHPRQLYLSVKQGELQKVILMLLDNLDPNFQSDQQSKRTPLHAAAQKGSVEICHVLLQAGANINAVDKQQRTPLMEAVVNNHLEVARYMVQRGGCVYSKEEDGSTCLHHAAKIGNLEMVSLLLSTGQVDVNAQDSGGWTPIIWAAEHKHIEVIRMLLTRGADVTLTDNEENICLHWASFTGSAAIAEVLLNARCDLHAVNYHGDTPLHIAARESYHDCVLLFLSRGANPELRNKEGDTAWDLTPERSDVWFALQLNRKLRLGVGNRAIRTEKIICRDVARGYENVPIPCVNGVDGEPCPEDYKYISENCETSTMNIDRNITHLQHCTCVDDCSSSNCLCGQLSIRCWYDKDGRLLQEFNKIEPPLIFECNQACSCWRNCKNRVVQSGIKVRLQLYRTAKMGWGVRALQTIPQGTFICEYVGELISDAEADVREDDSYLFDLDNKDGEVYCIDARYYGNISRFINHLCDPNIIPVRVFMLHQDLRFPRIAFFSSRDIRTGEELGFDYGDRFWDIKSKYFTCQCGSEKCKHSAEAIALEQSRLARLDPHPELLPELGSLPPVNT
Method: The selectivity profile of eltrombopag was investigated by testing the level of inhibition in a methyltransferase panel. The inhibition of 7 […] methyltransferase was tested at Reaction Biology (Malvern, PA, USA) using a gold standard radioisotope-based MT assay (MT HotSpot^TM) with 10 μM of eltrombopag in duplicate.

T1 sequence (Q86U44 whole entry, the tested form may be a part): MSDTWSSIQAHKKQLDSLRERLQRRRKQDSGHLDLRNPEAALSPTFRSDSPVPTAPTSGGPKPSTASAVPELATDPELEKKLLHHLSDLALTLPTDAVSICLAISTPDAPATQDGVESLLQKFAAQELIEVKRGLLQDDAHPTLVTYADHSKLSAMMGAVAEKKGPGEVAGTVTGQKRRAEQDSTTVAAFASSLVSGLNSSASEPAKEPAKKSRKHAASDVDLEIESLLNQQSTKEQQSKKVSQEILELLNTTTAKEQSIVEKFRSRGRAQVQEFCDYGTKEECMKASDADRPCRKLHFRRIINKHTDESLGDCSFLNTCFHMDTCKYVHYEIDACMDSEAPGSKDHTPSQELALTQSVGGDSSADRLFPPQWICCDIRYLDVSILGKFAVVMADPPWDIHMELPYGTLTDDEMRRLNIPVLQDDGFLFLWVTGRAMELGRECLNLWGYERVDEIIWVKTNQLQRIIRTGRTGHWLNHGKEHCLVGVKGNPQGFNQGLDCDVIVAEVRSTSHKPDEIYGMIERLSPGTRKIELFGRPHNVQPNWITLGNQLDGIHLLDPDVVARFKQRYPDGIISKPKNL
T1 sequence (Q9HCE5 whole entry partner, the tested form may be a part): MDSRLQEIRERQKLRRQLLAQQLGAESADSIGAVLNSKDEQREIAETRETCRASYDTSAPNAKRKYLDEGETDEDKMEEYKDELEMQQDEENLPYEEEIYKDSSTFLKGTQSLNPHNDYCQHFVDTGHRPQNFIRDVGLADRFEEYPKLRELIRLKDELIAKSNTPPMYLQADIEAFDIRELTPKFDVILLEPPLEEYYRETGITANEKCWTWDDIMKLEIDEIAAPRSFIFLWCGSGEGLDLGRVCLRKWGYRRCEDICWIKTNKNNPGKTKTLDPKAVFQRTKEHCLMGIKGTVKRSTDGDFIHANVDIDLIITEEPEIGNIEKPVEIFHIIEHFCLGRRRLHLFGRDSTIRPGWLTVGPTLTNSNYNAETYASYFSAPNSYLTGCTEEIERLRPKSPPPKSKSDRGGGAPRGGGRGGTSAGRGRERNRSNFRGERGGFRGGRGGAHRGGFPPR

In the case of `CC1=NN(c2ccc(C)c(C)c2)C(=O)/C1=N\Nc1cccc(-c2cccc(C(=O)O)c2)c1O` [Eltrombopag], the IC50 (METTL3-14 complex) is reported as 4.55 µM, the “number of differential m^6A methylation sites” value ([1]; MOLM-13, 25 μM eltrombopag) is reported as 10,723 and the “share of differential m^6A sites hypomethylated” value ([1]; MOLM-13, 25 μM eltrombopag) is reported as 71%. For the same molecule, the share of hypermethylation ([1]; MOLM-13, 25 μM eltrombopag) was “about 30%”, the “share of hypomethylated genes that are noncoding-RNA (ncRNA)” value ([1]; eltrombopag-treated MOLM-13) was 17% and the “share of hypomethylated genes that are protein-coding” value ([1]; eltrombopag-treated MOLM-13) was ~ 80%. The “share of hypomethylated genes that are pseudogenes” value ([1]; eltrombopag-treated MOLM-13) was 3%, the “in-vivo anti-leukemic effect (survival)” value [2] was “prolonging the survival” and the remaining activity at 10 µM (G9a) was 99 ± 3.3%.
